Data reported in PubChem BioAssay (NCI).
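Compound exposure: 48 hours, 5 concentrations, 96-well plates. TGI marks complete inhibition of growth.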

How the values were obtained:
Assay in all cases: NCI-60 cell line screen, 48 h
MCF7 breast = tested on: MCF7 breast
KM12 colon = tested on: KM12 colon
RXF 393 renal = tested on: RXF 393 renal
SR leukemia = tested on: SR leukemia
OVCAR-5 ovarian = tested on: OVCAR-5 ovarian
HCC-2998 colon = tested on: HCC-2998 colon
SNB-75 CNS = tested on: SNB-75 CNS
MDA-N = tested on: MDA-N
HL-60(TB) leukemia = tested on: HL-60(TB) leukemia
SK-MEL-5 melanoma = tested on: SK-MEL-5 melanoma
NCI-H23 lung = tested on: NCI-H23 lung
HT29 colon = tested on: HT29 colon
NCI-H460 lung = tested on: NCI-H460 lung
MALME-3M melanoma = tested on: MALME-3M melanoma
OVCAR-8 ovarian = tested on: OVCAR-8 ovarian
SF-268 CNS = tested on: SF-268 CNS
UACC-62 melanoma = tested on: UACC-62 melanoma
MDA-MB-435 = tested on: MDA-MB-435
PC-3 prostate = tested on: PC-3 prostate
K-562 leukemia = tested on: K-562 leukemia
MDA-MB-231 breast = tested on: MDA-MB-231 breast
RPMI-8226 leukemia = tested on: RPMI-8226 leukemia
HOP-62 NSCLC = tested on: HOP-62 NSCLC
IGROV1 ovarian = tested on: IGROV1 ovarian
HCT-116 colon = tested on: HCT-116 colon
786-0 renal = tested on: 786-0 renal
NCI-H522 lung = tested on: NCI-H522 lung
SW-620 colon = tested on: SW-620 colon
SK-OV-3 ovarian = tested on: SK-OV-3 ovarian
NCI-H226 lung = tested on: NCI-H226 lung
SF-295 CNS = tested on: SF-295 CNS
MOLT-4 leukemia = tested on: MOLT-4 leukemia
UO-31 renal = tested on: UO-31 renal
UACC-257 melanoma = tested on: UACC-257 melanoma
SK-MEL-2 melanoma = tested on: SK-MEL-2 melanoma
SK-MEL-28 melanoma = tested on: SK-MEL-28 melanoma
COLO 205 colon = tested on: COLO 205 colon
SF-539 CNS = tested on: SF-539 CNS
M14 melanoma = tested on: M14 melanoma
BT-549 breast = tested on: BT-549 breast
HOP-92 NSCLC = tested on: HOP-92 NSCLC
LOX IMVI melanoma = tested on: LOX IMVI melanoma
TK-10 renal = tested on: TK-10 renal
A498 renal = tested on: A498 renal
CCRF-CEM leukemia = tested on: CCRF-CEM leukemia
T-47D breast = tested on: T-47D breast
U251 CNS = tested on: U251 CNS
NCI/ADR-RES ovarian = tested on: NCI/ADR-RES ovarian
HS 578T breast = tested on: HS 578T breast
HCT-15 colon = tested on: HCT-15 colon
EKVX NSCLC = tested on: EKVX NSCLC
DU-145 prostate = tested on: DU-145 prostate
SNB-19 CNS = tested on: SNB-19 CNS
SN12C renal = tested on: SN12C renal
OVCAR-3 ovarian = tested on: OVCAR-3 ovarian
OVCAR-4 ovarian = tested on: OVCAR-4 ovarian
ACHN renal = tested on: ACHN renal
CAKI-1 renal = tested on: CAKI-1 renal
A549 NSCLC = tested on: A549 NSCLC
KM20L2 colon = tested on: KM20L2 colon
DLD-1 colon = tested on: DLD-1 colon
M19-MEL melanoma = tested on: M19-MEL melanoma
DMS 114 small cell lung = tested on: DMS 114 small cell lung
DMS 273 small cell lung = tested on: DMS 273 small cell lung
LXFL 529 NSCLC = tested on: LXFL 529 NSCLC

COC(=O)C(Cc1c[nH]c2ccccc12)N=C1Nc2ccncc2S(=O)(=O)N1c1cccc(OC(C)C)c1 (configuration not stated)
TGI (MCF7 breast): > 100 µM | TGI (KM12 colon): > 100 µM | TGI (RXF 393 renal): > 100 µM | TGI (SR leukemia): 79.7 µM | TGI (OVCAR-5 ovarian): > 100 µM | TGI (HCC-2998 colon): > 100 µM | TGI (SNB-75 CNS): > 100 µM | TGI (MDA-N): > 100 µM | TGI (HL-60(TB) leukemia): 59.3 µM | TGI (SK-MEL-5 melanoma): > 100 µM | TGI (NCI-H23 lung): 85.8 µM | TGI (HT29 colon): > 100 µM | TGI (NCI-H460 lung): > 100 µM | TGI (MALME-3M melanoma): > 100 µM | TGI (OVCAR-8 ovarian): > 100 µM | TGI (SF-268 CNS): > 100 µM | TGI (UACC-62 melanoma): > 100 µM | TGI (MDA-MB-435): > 100 µM | TGI (PC-3 prostate): > 100 µM | TGI (K-562 leukemia): > 100 µM | TGI (MDA-MB-231 breast): > 100 µM | TGI (RPMI-8226 leukemia): 54.4 µM | TGI (HOP-62 NSCLC): > 100 µM | TGI (IGROV1 ovarian): > 100 µM | TGI (HCT-116 colon): > 100 µM | TGI (786-0 renal): > 100 µM | TGI (NCI-H522 lung): > 100 µM | TGI (SW-620 colon): > 100 µM | TGI (SK-OV-3 ovarian): > 100 µM | TGI (NCI-H226 lung): > 100 µM | TGI (SF-295 CNS): > 100 µM | TGI (MOLT-4 leukemia): 75.8 µM | TGI (UO-31 renal): > 100 µM | TGI (UACC-257 melanoma): > 100 µM | TGI (SK-MEL-2 melanoma): > 100 µM | TGI (SK-MEL-28 melanoma): > 100 µM | TGI (COLO 205 colon): > 100 µM | TGI (SF-539 CNS): > 100 µM | TGI (M14 melanoma): > 100 µM | TGI (BT-549 breast): > 100 µM | TGI (HOP-92 NSCLC): 43.3 µM | TGI (LOX IMVI melanoma): > 100 µM | TGI (TK-10 renal): > 100 µM | TGI (A498 renal): > 100 µM | TGI (CCRF-CEM leukemia): > 100 µM | TGI (T-47D breast): > 100 µM | TGI (U251 CNS): > 100 µM | TGI (NCI/ADR-RES ovarian): > 100 µM | TGI (HS 578T breast): > 100 µM | TGI (HCT-15 colon): > 100 µM | TGI (EKVX NSCLC): > 100 µM | TGI (DU-145 prostate): > 100 µM | TGI (SNB-19 CNS): > 100 µM | TGI (SN12C renal): > 100 µM | TGI (OVCAR-3 ovarian): > 100 µM | TGI (OVCAR-4 ovarian): > 100 µM | TGI (ACHN renal): > 100 µM | TGI (CAKI-1 renal): > 100 µM | TGI (A549 NSCLC): > 100 µM

O=C(c1ccccc1)c1c(CC(O)c2ccncc2)n(C(=O)c2ccccc2)c2ccccc12 (configuration not stated)
TGI (KM12 colon): 37.8 µM | TGI (SR leukemia): 39.5 µM | TGI (KM20L2 colon): 34 µM | TGI (OVCAR-5 ovarian): 34.5 µM | TGI (HCC-2998 colon): 31.5 µM | TGI (SNB-75 CNS): 41.4 µM | TGI (HL-60(TB) leukemia): 39.9 µM | TGI (SK-MEL-5 melanoma): 30.1 µM | TGI (NCI-H23 lung): 35 µM | TGI (HT29 colon): 33.2 µM | TGI (NCI-H460 lung): 49.9 µM | TGI (MALME-3M melanoma): 34 µM | TGI (OVCAR-8 ovarian): > 100 µM | TGI (SF-268 CNS): 49.3 µM | TGI (UACC-62 melanoma): 31.5 µM | TGI (DLD-1 colon): > 100 µM | TGI (M19-MEL melanoma): 33 µM | TGI (RPMI-8226 leukemia): 46.1 µM | TGI (HOP-62 NSCLC): 31.6 µM | TGI (IGROV1 ovarian): 40.5 µM | TGI (HCT-116 colon): 29.2 µM | TGI (786-0 renal): 39.1 µM | TGI (NCI-H522 lung): 29.7 µM | TGI (SW-620 colon): 39.2 µM | TGI (DMS 114 small cell lung): 40.2 µM | TGI (NCI-H226 lung): 30.8 µM | TGI (SF-295 CNS): 26 µM | TGI (MOLT-4 leukemia): 42.1 µM | TGI (UO-31 renal): 31.7 µM | TGI (UACC-257 melanoma): 32.9 µM | TGI (SK-MEL-2 melanoma): 31 µM | TGI (SK-MEL-28 melanoma): 32.4 µM | TGI (COLO 205 colon): 33.7 µM | TGI (SF-539 CNS): 32.1 µM | TGI (M14 melanoma): 30.8 µM | TGI (HOP-92 NSCLC): 29.4 µM | TGI (TK-10 renal): 75.2 µM | TGI (CCRF-CEM leukemia): 61.9 µM | TGI (DMS 273 small cell lung): 37.1 µM | TGI (U251 CNS): 31.6 µM | TGI (LXFL 529 NSCLC): 45.9 µM | TGI (HCT-15 colon): 38.7 µM | TGI (SNB-19 CNS): 73.1 µM | TGI (OVCAR-3 ovarian): 28.9 µM | TGI (OVCAR-4 ovarian): 39.7 µM | TGI (ACHN renal): 67.5 µM | TGI (CAKI-1 renal): 59.7 µM | TGI (A549 NSCLC): 52.8 µM
